Results on six molecules are retold here after article PMC6212553, “Baicalein Enhances the Oral Bioavailability and Hepatoprotective Effects of Silybin Through the Inhibition of Efflux Transporters BCRP and MRP2” (Frontiers in Pharmacology, 2018).

One series has as its target T1, MDR1 (Homo sapiens, UniProt P08183).
T1 construct: host or cells: MDCK II (canine kidney) cells transfected with MDR1
The series is described as follows: Bidirectional transport of Rho123 in MDCKII-MDR1 cells. The conditions noted are these: dog, MDCK-MDR1, absence of inhibitor. The series is classed as cell-based. How it is done:
(§1) Human colon epithelial cell line (Caco-2) was purchased from American Type Culture Collection (Manassas, VA, United States) and frozen at -80°C. Wild type MDCK II, MDR1-MDCK II, BCRP-MDCK II, and MRP2-MDCK II cells were kindly supplied by the Netherlands Cancer Institute (Amsterdam, Netherlands). […] The Caco-2 cells were cultured at 37°C/5% CO2 in Dulbecco’s modified Eagle’s medium (DMEM) supplemented with 10% fetal bovine serum, 1% nonessential amino acids, and 1% penicillin-streptomycin. The Caco-2 cells were seeded onto polyester filter membranes in a 12-well Transwell® plate (Corning Costar Co., NY, United States) with 0.6 × 10^5 cells/cm^2. […]
(§2) For inhibition studies, Caco-2 or MDCK II cell monolayers in both apical and basolateral chambers were preincubated with the inhibitor for 30 min. The fluorescence intensity of the sample collected from the AP or BL side was immediately detected in a 96-well black plate by the Microplate UV/VIS spectrophotometer (TECAN Infinite M200 PRO, Männedorf, Switzerland). […]
(§3) where dQ/dt (mM/s) represents the rate of permeation of the drug across the cells, C0 (mM) refers to the concentration in the donor compartment at time zero calculated from dosing solution, and A (cm^2) refers to the area of the cell monolayer. Papp (B-A) is the Papp value measured in the B to A direction, and Papp (A-B) is the Papp value measured in the A to B direction. […]

The next series deals with T2, BCRP (Homo sapiens, UniProt Q9UNQ0).
T2 construct: host or cells: MDCK II (canine kidney) cells transfected with BCRP
T2 sequence (Q9UNQ0 1-655): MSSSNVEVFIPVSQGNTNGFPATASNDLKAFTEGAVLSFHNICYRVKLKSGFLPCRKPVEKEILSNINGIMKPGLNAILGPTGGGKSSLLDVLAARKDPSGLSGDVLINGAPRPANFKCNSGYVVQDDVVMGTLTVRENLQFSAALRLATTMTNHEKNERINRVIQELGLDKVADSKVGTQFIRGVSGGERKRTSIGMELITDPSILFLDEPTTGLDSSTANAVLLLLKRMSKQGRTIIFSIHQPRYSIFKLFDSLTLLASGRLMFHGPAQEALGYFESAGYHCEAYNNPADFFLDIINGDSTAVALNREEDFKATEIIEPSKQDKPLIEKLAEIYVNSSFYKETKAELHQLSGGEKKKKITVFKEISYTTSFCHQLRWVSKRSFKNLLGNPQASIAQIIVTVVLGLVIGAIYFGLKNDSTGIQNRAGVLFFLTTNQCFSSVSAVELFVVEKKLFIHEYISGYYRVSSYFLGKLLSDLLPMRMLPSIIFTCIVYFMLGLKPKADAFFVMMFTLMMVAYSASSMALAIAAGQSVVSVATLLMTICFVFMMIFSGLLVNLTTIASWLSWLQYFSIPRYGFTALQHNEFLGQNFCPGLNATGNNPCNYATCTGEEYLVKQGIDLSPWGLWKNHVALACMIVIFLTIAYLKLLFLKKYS
In words: Bidirectional transport of pheophorbide A in MDCKII-BCRP cells. The series is classed as cell-based. The conditions noted are these: dog, absence of inhibitor. How it is done: as §1, §2, §3

A further series concerns Caco-2 cells. In words: Bidirectional transport of silybin across Caco-2 cell monolayers. Type of series: in vitro ADME, Human. The conditions noted are these: Caco-2 monolayers, silybin 10 μM. How it is done:
Human colon epithelial cell line (Caco-2) was purchased from American Type Culture Collection (Manassas, VA, United States) and frozen at -80°C. Wild type MDCK II, MDR1-MDCK II, BCRP-MDCK II, and MRP2-MDCK II cells were kindly supplied by the Netherlands Cancer Institute (Amsterdam, Netherlands). Transport study was carried out with Caco-2 cells, and MDCK II cells were transfected using a previously established method with slight modifications ([Yuan et al., 2017]). The Caco-2 cells were cultured at 37°C/5% CO2 in Dulbecco's modified Eagle's medium (DMEM) supplemented with 10% fetal bovine serum, 1% nonessential amino acids, and 1% penicillin-streptomycin. The Caco-2 cells were seeded onto polyester filter membranes in a 12-well Transwell® plate (Corning Costar Co., NY, United States) with 0.6 × 10^5 cells/cm^2. The monolayer cells were used for transport assays between 21 and 23 days. The MDCKII cells were seeded on transwell plates with a density of 2.0 × 10^5 cells/cm^2 and grown for 4-5 days to form a confluent monolayer. Bidirectional transport assays for Caco-2 and MDCK II cells were performed by adding silybin (10 μM) in assay buffer into either the apical (AP; A-to-B) or basolateral (BL; […] For inhibition studies, Caco-2 or MDCK II cell monolayers in both apical and basolateral chambers were preincubated with the inhibitor for 30 min. The fluorescence intensity of the sample collected from the AP or BL side was immediately detected in a 96-well black plate by the Microplate UV/VIS spectrophotometer (TECAN Infinite […], Männedorf, Switzerland). For liquid chromatography tandem-mass spectrometry (LC-MS/MS) analysis, the sample (100 μl) was mixed with methanol (50 μl) containing internal standard (25 ng/ml) and was stored at -80°C. The formula for calculating apparent permeability coefficient (Papp) values is as follows: (1) […] where dQ/dt (mM/s) represents the rate of permeation of the drug across the cells, C0 (mM) refers to the concentration in the donor compartment at time zero calculated from dosing solution, and A (cm^2) refers to the area of the cell monolayer. Papp (B-A) is the Papp value measured in the B to A direction, and Papp (A-B) is the Papp value measured in the A to B direction. The efflux ratio is given as ER = Papp (B to A)/Papp (A to B).

Series [1] deals with sandwich-cultured rat hepatocytes. The series is described as follows: Biliary excretion in sandwich-cultured rat hepatocytes (SCH). The series is classed as in vitro ADME. How it is done:
Sandwich-cultured rat hepatocytes (SCHs) model was established based on a previously described method with minor modifications ([Swift et al., 2010]). In brief, primary rat hepatocytes were prepared from male Sprague Dawley (SD) rats (220–270 g) using collagenase perfusion as described previously ([Liu et al., 1999]) and then were plated on 6-well plates at a density of 7.4 × 10^5 cells/2 ml/well. Approximately 24 h later, hepatocytes were overlaid with 2 ml of BD Matrigel basement membrane matrix in DMEM (0.25 mg/ml) containing 1% (v/v) insulin/transferrin/selenium culture supplement, […], 2 mM L-glutamine, and 1% penicillin-streptomycin. Hepatocytes were cultured for 4 days with daily medium replacements until the canalicular network was extensively formatted between the cells before the experiment. Evaluation of biliary excretion in SCHs was carried out according to a previously described method ([Liu et al., 1999]). […] Samples were quantified by LC-MS/MS analysis, and the transport function was normalized to the protein content of the hepatocytes. […] Later, the residues were reconstituted with 60 μl of 30% methanol in water containing 1% ascorbic acid, and an aliquot of 10 μl of final solution after centrifugation was analyzed by LC-MS/MS. […] The quantitative linear range for silybin A and B was 5 to 12500 ng/ml.

Series [2] has as its system CCl4-induced liver injury model. In words: CCl4-induced acute liver injury in rats. Type of series: in vivo, SD rats. Further details: Nerosis (histologic score, liver H&E) / Haemorrhage (histologic score, liver H&E) / Inflammation (histologic score, liver H&E) / Steatosis (histologic score, liver H&E): scale not given here. On the procedure: Male SD rats were randomly divided into seven groups: […] (2) Group II, given blank vehicle p.o. for 7 days; (3) Group III, treatment with silybin (100 mg/kg bodyweight, p.o.) for 7 days; […] After 24 h of CCl4 treatment, all rats were sacrificed under ether anesthesia. Blood samples were collected from the abdominal aorta for biochemical estimations. The liver was immediately removed and weighed with a large portion of the liver frozen in liquid nitrogen. The pathological liver changes were examined by hematoxylin and eosin (H&E) staining, which was performed by a pathologist who was blinded to this study. The serum levels of ALT, AST, AKP, and SOD as well as the cytokines TNF- α, IL-6, and IL-1β were detected by the assay kit, according to the manufacturer’s instructions.

The conditions of series [3]: ref Lai et al., 2003, cited from earlier work.
The next series addresses T3, MRP2 (Homo sapiens, UniProt Q92887).
T3 construct: host or cells: MDCK II (canine kidney) cells transfected with MRP2
In words: Bidirectional transport of CDCFDA in MDCKII-MRP2 cells. Type of series: cell-based. On the procedure:
Human colon epithelial cell line (Caco-2) was purchased from American Type Culture Collection (Manassas, VA, United States) and frozen at -80°C. Wild type MDCK II, MDR1-MDCK II, BCRP-MDCK II, and MRP2-MDCK II cells were kindly supplied by the Netherlands Cancer Institute (Amsterdam, Netherlands). Transport study was carried out with Caco-2 cells, and MDCK II cells were transfected using a previously established method with slight modifications ([Yuan et al., 2017]). The Caco-2 cells were cultured at 37°C/5% CO2 in Dulbecco’s modified Eagle’s medium (DMEM) supplemented with 10% fetal bovine serum, 1% nonessential amino acids, and 1% penicillin-streptomycin. […]
Bidirectional transport assays for Caco-2 and MDCK II cells were performed by adding silybin (10 μM) in assay buffer into either the apical (AP; A-to-B) or basolateral (BL; B-to-A) chamber, and each 100 μl sample was collected at 30, 60, 90, 120, and 180 min. […] The fluorescence intensity of the sample collected from the AP or BL side was immediately detected in a 96-well black plate by the Microplate UV/VIS spectrophotometer (TECAN Infinite M200 PRO, Männedorf, Switzerland). […]
where dQ/dt (mM/s) represents the rate of permeation of the drug across the cells, C0 (mM) refers to the concentration in the donor compartment at time zero calculated from dosing solution, and A (cm^2) refers to the area of the cell monolayer. […]

Setting [4] is: 100 mg/kg p.o. 7 days, single agent, CCl4 on day 7.

T1 sequence (P08183 whole entry): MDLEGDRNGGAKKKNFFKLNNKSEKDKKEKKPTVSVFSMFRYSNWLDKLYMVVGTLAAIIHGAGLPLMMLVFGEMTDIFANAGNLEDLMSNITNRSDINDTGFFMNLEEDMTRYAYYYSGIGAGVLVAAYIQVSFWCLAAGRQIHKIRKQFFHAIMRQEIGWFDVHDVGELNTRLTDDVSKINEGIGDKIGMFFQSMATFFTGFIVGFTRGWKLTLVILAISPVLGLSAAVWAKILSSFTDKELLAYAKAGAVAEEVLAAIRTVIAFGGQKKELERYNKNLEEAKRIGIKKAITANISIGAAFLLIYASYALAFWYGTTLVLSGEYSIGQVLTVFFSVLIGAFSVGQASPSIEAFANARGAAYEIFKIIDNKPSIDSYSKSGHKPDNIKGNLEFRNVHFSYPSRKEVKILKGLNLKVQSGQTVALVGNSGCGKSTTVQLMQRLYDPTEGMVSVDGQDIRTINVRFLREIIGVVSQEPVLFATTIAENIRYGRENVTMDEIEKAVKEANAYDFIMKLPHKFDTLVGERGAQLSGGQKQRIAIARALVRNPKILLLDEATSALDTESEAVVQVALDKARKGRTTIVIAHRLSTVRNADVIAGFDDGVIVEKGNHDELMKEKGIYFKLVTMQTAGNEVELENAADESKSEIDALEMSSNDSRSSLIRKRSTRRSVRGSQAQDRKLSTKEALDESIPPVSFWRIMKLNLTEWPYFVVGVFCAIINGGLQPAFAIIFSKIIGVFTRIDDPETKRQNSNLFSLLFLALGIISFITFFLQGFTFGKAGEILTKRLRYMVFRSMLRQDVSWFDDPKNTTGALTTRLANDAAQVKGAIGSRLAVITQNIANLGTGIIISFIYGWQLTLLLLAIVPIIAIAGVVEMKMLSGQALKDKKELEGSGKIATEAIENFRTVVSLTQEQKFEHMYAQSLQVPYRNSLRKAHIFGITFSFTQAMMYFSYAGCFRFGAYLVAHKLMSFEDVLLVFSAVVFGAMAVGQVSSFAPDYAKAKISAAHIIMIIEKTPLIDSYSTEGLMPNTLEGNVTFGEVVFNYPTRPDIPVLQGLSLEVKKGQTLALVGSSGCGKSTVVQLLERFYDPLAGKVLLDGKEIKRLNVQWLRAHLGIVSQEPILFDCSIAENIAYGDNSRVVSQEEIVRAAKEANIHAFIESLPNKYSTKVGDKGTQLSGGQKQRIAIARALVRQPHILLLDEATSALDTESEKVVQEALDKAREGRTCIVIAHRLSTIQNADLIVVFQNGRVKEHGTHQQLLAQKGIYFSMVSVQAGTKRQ
T3 sequence (Q92887 whole entry): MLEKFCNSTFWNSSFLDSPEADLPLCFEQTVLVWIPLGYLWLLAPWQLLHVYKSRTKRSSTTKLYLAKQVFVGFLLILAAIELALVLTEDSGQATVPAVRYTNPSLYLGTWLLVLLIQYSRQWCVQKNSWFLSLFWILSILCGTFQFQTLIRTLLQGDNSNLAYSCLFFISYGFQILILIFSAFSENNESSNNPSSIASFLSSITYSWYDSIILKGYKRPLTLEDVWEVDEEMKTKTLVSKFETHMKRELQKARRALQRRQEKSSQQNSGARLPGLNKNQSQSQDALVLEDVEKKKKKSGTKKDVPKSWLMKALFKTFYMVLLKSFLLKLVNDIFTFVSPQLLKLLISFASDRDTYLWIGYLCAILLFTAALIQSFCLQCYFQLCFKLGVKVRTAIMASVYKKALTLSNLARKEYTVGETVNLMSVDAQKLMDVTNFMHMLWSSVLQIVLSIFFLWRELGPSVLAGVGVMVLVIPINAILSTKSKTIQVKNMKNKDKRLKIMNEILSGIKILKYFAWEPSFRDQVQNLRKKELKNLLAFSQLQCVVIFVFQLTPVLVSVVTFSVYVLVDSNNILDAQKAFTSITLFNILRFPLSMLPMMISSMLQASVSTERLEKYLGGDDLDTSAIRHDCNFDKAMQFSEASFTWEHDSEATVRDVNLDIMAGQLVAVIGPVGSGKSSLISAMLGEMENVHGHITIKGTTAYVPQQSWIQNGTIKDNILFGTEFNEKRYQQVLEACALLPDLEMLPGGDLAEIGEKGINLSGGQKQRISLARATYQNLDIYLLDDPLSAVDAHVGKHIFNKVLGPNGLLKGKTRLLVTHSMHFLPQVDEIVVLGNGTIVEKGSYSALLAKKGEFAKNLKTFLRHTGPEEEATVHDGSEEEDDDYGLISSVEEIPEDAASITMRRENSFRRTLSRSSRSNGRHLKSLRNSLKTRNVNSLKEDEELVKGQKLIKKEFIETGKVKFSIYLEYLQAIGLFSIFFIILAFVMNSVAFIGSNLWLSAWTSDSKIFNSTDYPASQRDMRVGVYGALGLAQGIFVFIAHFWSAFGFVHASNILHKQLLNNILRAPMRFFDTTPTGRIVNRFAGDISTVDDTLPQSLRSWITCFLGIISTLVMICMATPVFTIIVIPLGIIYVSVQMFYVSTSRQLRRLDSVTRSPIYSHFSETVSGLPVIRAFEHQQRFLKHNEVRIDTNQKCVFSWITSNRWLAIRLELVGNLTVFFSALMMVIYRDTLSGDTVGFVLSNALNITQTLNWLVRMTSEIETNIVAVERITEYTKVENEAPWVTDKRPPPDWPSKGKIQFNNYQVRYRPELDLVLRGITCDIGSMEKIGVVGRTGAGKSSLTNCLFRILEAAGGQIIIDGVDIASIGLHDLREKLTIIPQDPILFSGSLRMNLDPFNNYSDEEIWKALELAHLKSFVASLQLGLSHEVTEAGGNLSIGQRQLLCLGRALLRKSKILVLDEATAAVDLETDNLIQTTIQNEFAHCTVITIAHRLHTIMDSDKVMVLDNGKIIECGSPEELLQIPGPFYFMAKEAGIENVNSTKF

For `COC(=O)c1ccccc1-c1c2ccc(=N)cc-2oc2cc(N)ccc12` [Rho123, Rhodamine 123], the efflux ratio at 180 min on MDR1 was determined as 3.68 ± 0.44.
`C=Cc1c(C)c2cc3nc(c4c5[nH]c(cc6nc(cc1[nH]2)C(C)=C6CC)c(C)c5C(=O)[C@@H]4C(=O)OC)[C@@H](CCC(=O)O)[C@@H]3C` [pheophorbide A]: the efflux ratio at 180 min at BCRP was found to be 2.82 ± 0.13.
Consider `O=c1cc(-c2ccccc2)oc2cc(O)c(O)c(O)c12` [baicalein, 5,6,7-trihydroxyflavone], for which, in the series with Caco-2 cells, the “lowest effective dosage inhibiting efflux transport of silybin” value was determined as 0.5 µM. Besides, the “reduction of the biliary excretion of silybin conjugates” value in series [1] (baicalein 25 μM) is ~90%. For the same molecule, in series [2] (setting [4]), the “Haemorrhage (histologic score, liver H&E)” value was found to be 2.2±0.4; the “Inflammation (histologic score, liver H&E)” value came out at 2.2±0.8; the “Nerosis (histologic score, liver H&E)” value is 3.0±0.6; the “Steatosis (histologic score, liver H&E)” value is 2.3±0.8. Further, in series [2] (CCl4-induced acute liver injury model), the “protection of liver injury by baicalein itself” value is “failed to show significant benefits”. Also, the “glucuronides/sulfates of baicalein in the plasma or cell” value in series [3] (after oral administration or dosing in the Caco-2 cell model, Li et al., 2012) was 75.7%. The absolute absorption in series [3] (passive diffusion) was 40%.
`O=C(O)[C@H]1O[C@@H](Oc2cc3oc(-c4ccccc4)cc(=O)c3c(O)c2O)[C@H](O)[C@@H](O)[C@@H]1O` [baicalin]: the “relative absorption compared with baicalein” value in series [3] (after oral administration) is given as 65%.
On to `CN(C)C(=O)CCSC(SCCC(=O)O)c1cccc(/C=C/c2ccc3ccc(Cl)cc3n2)c1` (centres unmarked) [MK571], for which, in series [1] (MK571 50 μM, positive control), the “effect on biliary excretion of silybin and its conjugates” value is given as “significantly inhibited”.
Turning to “5(6)-Carboxy-2′,7′-dichlorofluorescein diacetate [CDCFDA]”, on MRP2, the “efflux ratio of CDCFDA” value amounted to 3.82 ± 0.51.

By efflux ratio is commonly meant a quotient of directional permeabilities that is used to spot active efflux.
